In US20070244196A1, “Prostaglandin F2alpha derivative-containing product” (SANTEN PHARMACEUTICAL CO., LTD., priority 2004, published 2007):

Test: Storage stability test (eye drop in contact with resin containers, 40° C. for 7 days, HPLC)
Type: physicochemical
Details: eye drop (present compound 0.0005%, polysorbate 80 0.05%, pH about 6), containers of propylene/ethylene random copolymer (98.7/1.3, 97.4/2.6, 96.4/3.6) compared with propylene homopolymer container
Procedure: Hereinafter, the present invention will be described in detail through carrying out a storage stability test (40° C. for 7 days). However, such descriptions are disclosed for the purpose of understanding the present invention better and are not meant to limit the scope of the present invention.
As a typical example of a prostaglandin F2α derivative having at least a fluorine atom in its molecule, 16-phenoxy-15-deoxy-15,15-difluoro-17,18,19,20-tetranor-prostaglandin F2α isopropyl ester (hereinafter, referred to as the “present compound” ) was used. The present compound (0.0005%) and polysorbate 80 (0.05%) were dissolved in purified water, and then, commonly used additives such as disodium edetate (q.s.), concentrated glycerin (q.s.), benzalkonium chloride (q.s.) and the like were added thereto to obtain an eye drop with an osmotic pressure of about 1 and a pH of about 6. […]
The eye drop (110 ml) obtained in the section of “(1) Preparation of Eye Drop” was placed in a glass container and the glass container was heated to 40° C. […] The amount of the present compound contained in the glass container was measured by high performance liquid chromatography before and after the storage, and the content of the present compound (average) was calculated taking the content of the present compound at the time of initiation of storage as 100%.

CC(C)OC(=O)CCC/C=C\C[C@@H]1[C@@H](/C=C/C(F)(F)COc2ccccc2)[C@H](O)C[C@@H]1O [present compound, 16-phenoxy-15-deoxy-15,15-difluoro-17,18,19,20-tetranor-prostaglandin F2α isopropyl ester]
content of the present compound (average), content at the time of initiation of storage taken as 100%: higher
